# Laboratory results from ChEMBL document CHEMBL5154873, “Selective degradation of PARP2 by PROTACs via recruiting DCAF16 for triple-negative breast cancer” (Eur J Med Chem, 2022).
# Calls of active or inactive are those of the source. No cut-off for these calls is given here.
# Tests used:
# MDA-MB-436 = assay: Antiproliferative activity against human BRCA1 -/- MDA-MB-436 cells assessed as reduction in cell viability incubated for 5 to 10 days by MTT assay; type: functional, cell-based
# CAPAN-1 = assay: Antiproliferative activity against human BRCA2 -/- CAPAN-1 cells assessed as reduction in cell viability incubated for 5 to 10 days by MTT assay; type: functional, cell-based
# [1] = target: DDB1- and CUL4-associated factor 16/Poly [ADP-ribose] polymerase 2 (Homo sapiens, UniProt Q9UGN5+Q9NXF7); assay: Protac activity at DCAF16 E3 ligase/PARP2 in human MDA-MB-231 cells assessed as induction of PARP2 degradation at 1 uM measured after 24 hrs by Western blot analysis; type: cell-based
# Chain of DDB1- and CUL4-associated factor 16/Poly [ADP-ribose] polymerase 2 (Q9NXF7 whole entry, looked up): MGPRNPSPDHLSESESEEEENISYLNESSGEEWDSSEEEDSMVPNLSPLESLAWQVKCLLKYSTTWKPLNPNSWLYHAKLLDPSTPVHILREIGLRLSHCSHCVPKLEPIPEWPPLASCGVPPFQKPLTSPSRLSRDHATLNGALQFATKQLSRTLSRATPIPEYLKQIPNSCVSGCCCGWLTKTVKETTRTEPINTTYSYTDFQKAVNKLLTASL
# Chain of DDB1- and CUL4-associated factor 16/Poly [ADP-ribose] polymerase 2 (Q9UGN5 whole entry, looked up): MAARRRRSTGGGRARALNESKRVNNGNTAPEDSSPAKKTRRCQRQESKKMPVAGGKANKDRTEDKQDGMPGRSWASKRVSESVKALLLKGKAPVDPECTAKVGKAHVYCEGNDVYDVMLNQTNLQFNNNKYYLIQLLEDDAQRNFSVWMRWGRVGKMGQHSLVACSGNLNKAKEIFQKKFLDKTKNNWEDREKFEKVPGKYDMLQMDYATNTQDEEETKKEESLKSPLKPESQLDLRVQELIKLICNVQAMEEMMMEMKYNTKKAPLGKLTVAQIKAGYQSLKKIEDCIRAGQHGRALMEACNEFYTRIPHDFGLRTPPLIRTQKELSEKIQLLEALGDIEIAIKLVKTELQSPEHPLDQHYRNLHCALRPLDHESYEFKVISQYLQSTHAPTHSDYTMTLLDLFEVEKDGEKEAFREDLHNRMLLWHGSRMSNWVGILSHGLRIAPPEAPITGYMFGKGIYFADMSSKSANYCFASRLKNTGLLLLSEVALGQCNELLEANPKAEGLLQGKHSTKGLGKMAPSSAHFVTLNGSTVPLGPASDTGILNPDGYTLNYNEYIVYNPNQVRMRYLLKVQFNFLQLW
# MDA-MB-468 = assay: Antiproliferative activity against human PTEN -/- MDA-MB-468 cells assessed as reduction in cell viability incubated for 5 to 10 days by MTT assay; type: functional, cell-based
# MDA-MB-231 = assay: Antiproliferative activity against wild type human MDA-MB-231 cells assessed as reduction in cell viability incubated for 5 to 10 days by MTT assay; type: functional, cell-based
IC50 (MDA-MB-436),Activity [1],IC50 (MDA-MB-468),IC50 (MDA-MB-231),Structure (SMILES),IC50 (CAPAN-1)
110 nM,Active,2110 nM,4230 nM,O=C(COc1ccc2c(c1)CCCN2C(=O)CCl)NCCCCCCCC(=O)N1CCN(C(=O)c2cc(Cc3n[nH]c(=O)c4ccccc34)ccc2F)CC1,120 nM
1740 nM,,> 20000 nM,> 20000 nM,O=C(COc1ccc2c(c1)CCCN2C(=O)CCl)NCCOCCOCCOCCNC(=O)CN1CCN(C(=O)c2cc(Cc3n[nH]c(=O)c4ccccc34)ccc2F)CC1,3490 nM
77 nM,Active,1700 nM,2690 nM,O=C(COc1ccc2c(c1)CCCN2C(=O)CCl)NCCCCCCCCC(=O)N1CCN(C(=O)c2cc(Cc3n[nH]c(=O)c4ccccc34)ccc2F)CC1,150 nM
2700 nM,,> 20000 nM,> 20000 nM,O=C(COc1ccc2c(c1)CCCN2C(=O)CCl)NCCCNC(=O)CN1CCN(C(=O)c2cc(Cc3n[nH]c(=O)c4ccccc34)ccc2F)CC1,3370 nM
1190 nM,Active,5900 nM,7190 nM,O=C(CCC(=O)N1CCN(C(=O)c2cc(Cc3n[nH]c(=O)c4ccccc34)ccc2F)CC1)NCCCNC(=O)COc1ccc2c(c1)CCCN2C(=O)CCl,1870 nM
660 nM,Active,5700 nM,6210 nM,O=C(CCC(=O)N1CCN(C(=O)c2cc(Cc3n[nH]c(=O)c4ccccc34)ccc2F)CC1)NCCCCCCCNC(=O)COc1ccc2c(c1)CCCN2C(=O)CCl,1690 nM
1750 nM,,6370 nM,9710 nM,O=C(CCC(=O)N1CCN(C(=O)c2cc(Cc3n[nH]c(=O)c4ccccc34)ccc2F)CC1)NCCOCCOCCOCCNC(=O)COc1ccc2c(c1)CCCN2C(=O)CCl,1600 nM
1190 nM,,9740 nM,12900 nM,O=C(CCC(=O)N1CCN(C(=O)c2cc(Cc3n[nH]c(=O)c4ccccc34)ccc2F)CC1)NCCOCCOCCNC(=O)COc1ccc2c(c1)CCCN2C(=O)CCl,1280 nM
1480 nM,Active,6180 nM,8440 nM,O=C(CCC(=O)N1CCN(C(=O)c2cc(Cc3n[nH]c(=O)c4ccccc34)ccc2F)CC1)NCCNC(=O)COc1ccc2c(c1)CCCN2C(=O)CCl,3160 nM
2890 nM,,> 20000 nM,> 20000 nM,O=C(COc1ccc2c(c1)CCCN2C(=O)CCl)NCCOCCNC(=O)CN1CCN(C(=O)c2cc(Cc3n[nH]c(=O)c4ccccc34)ccc2F)CC1,5280 nM
240 nM,,4680 nM,5310 nM,O=C(COc1ccc2c(c1)CCCN2C(=O)CCl)NCCCCCC(=O)N1CCN(C(=O)c2cc(Cc3n[nH]c(=O)c4ccccc34)ccc2F)CC1,390 nM
820 nM,Active,7450 nM,9740 nM,NC(=O)n1nc(Cc2ccc(F)c(C(=O)N3CCN(C(=O)CCC(=O)NCCCCNC(=O)COc4ccc5c(c4)CCCN5C(=O)CCl)CC3)c2)c2ccccc2c1=O,1960 nM
43 nM,,2230 nM,3100 nM,CCC(=O)N1CCCc2cc(OCC(=O)NCCCCCCCCCCC(=O)N3CCN(C(=O)c4cc(Cc5n[nH]c(=O)c6ccccc56)ccc4F)CC3)ccc21,87 nM
55 nM,,5850 nM,3510 nM,O=C(COc1ccc2c(c1)CCCN2C(=O)CCl)NCC(=O)N1CCN(C(=O)c2cc(Cc3n[nH]c(=O)c4ccccc34)ccc2F)CC1,610 nM
1840 nM,,9100 nM,11600 nM,O=C(COc1ccc2c(c1)CCCN2C(=O)CCl)NCCCCNC(=O)CN1CCN(C(=O)c2cc(Cc3n[nH]c(=O)c4ccccc34)ccc2F)CC1,2690 nM
1690 nM,,13400 nM,> 20000 nM,O=C(COc1ccc2c(c1)CCCN2C(=O)CCl)NCCNC(=O)CN1CCN(C(=O)c2cc(Cc3n[nH]c(=O)c4ccccc34)ccc2F)CC1,3300 nM
1960 nM,,11200 nM,12300 nM,O=C(COc1ccc2c(c1)CCCN2C(=O)CCl)NCCCCCCNC(=O)CN1CCN(C(=O)c2cc(Cc3n[nH]c(=O)c4ccccc34)ccc2F)CC1,4360 nM
780 nM,,7430 nM,11000 nM,O=C(CCC(=O)N1CCN(C(=O)c2cc(Cc3n[nH]c(=O)c4ccccc34)ccc2F)CC1)NCCOCCOCCOCCOCCNC(=O)COc1ccc2c(c1)CCCN2C(=O)CCl,1950 nM
5020 nM,,> 20000 nM,> 20000 nM,O=C(COc1ccc2c(c1)CCCN2C(=O)CCl)NCCOCCOCCOCCOCCNC(=O)CN1CCN(C(=O)c2cc(Cc3n[nH]c(=O)c4ccccc34)ccc2F)CC1,7040 nM
630 nM,,8170 nM,6680 nM,O=C(COc1ccc2c(c1)CCCN2C(=O)CCl)NCCOCCOCCOCCn1cc(CCCCC(=O)N2CCN(C(=O)c3cc(Cc4n[nH]c(=O)c5ccccc45)ccc3F)CC2)nn1,2230 nM
660 nM,,> 20000 nM,> 20000 nM,O=C(COc1ccc2c(c1)CCCN2C(=O)CCl)NCCC(=O)N1CCN(C(=O)c2cc(Cc3n[nH]c(=O)c4ccccc34)ccc2F)CC1,900 nM
1480 nM,,6010 nM,8270 nM,O=C(CCC(=O)N1CCN(C(=O)c2cc(Cc3n[nH]c(=O)c4ccccc34)ccc2F)CC1)NCCOCCNC(=O)COc1ccc2c(c1)CCCN2C(=O)CCl,2830 nM
25 nM,Active,720 nM,810 nM,O=C(COc1ccc2c(c1)CCCN2C(=O)CCl)NCCCCCCCCCCC(=O)N1CCN(C(=O)c2cc(Cc3n[nH]c(=O)c4ccccc34)ccc2F)CC1,68 nM
350 nM,Active,3910 nM,5590 nM,O=C(CCC(=O)N1CCN(C(=O)c2cc(Cc3n[nH]c(=O)c4ccccc34)ccc2F)CC1)NCCCCCCNC(=O)COc1ccc2c(c1)CCCN2C(=O)CCl,990 nM
570 nM,,7240 nM,> 20000 nM,O=C(COc1ccc2c(c1)CCCN2C(=O)CCl)NCCCCC(=O)N1CCN(C(=O)c2cc(Cc3n[nH]c(=O)c4ccccc34)ccc2F)CC1,790 nM
3460 nM,,> 20000 nM,> 20000 nM,O=C(COc1ccc2c(c1)CCCN2C(=O)CCl)NCCOCCOCCNC(=O)CN1CCN(C(=O)c2cc(Cc3n[nH]c(=O)c4ccccc34)ccc2F)CC1,7630 nM
490 nM,,> 20000 nM,> 20000 nM,O=C(COc1ccc2c(c1)CCCN2C(=O)CCl)NCCCC(=O)N1CCN(C(=O)c2cc(Cc3n[nH]c(=O)c4ccccc34)ccc2F)CC1,840 nM
290 nM,Active,1220 nM,2420 nM,O=C(CCC(=O)N1CCN(C(=O)c2cc(Cc3n[nH]c(=O)c4ccccc34)ccc2F)CC1)NCCCCCNC(=O)COc1ccc2c(c1)CCCN2C(=O)CCl,890 nM
